The text below walks through data of ChEMBL document CHEMBL3774343, “Discovery of CREBBP Bromodomain Inhibitors by High-Throughput Docking and Hit Optimization Guided by Molecular Dynamics” (J Med Chem, 2016).

Structures are written as SMILES. pIC50, pKd: −log10 of the molar value. Peptide text beside a SMILES is read from it. Bounds are passed on as bounds.

The target in experiment [1] is T1, CREB-binding protein (Homo sapiens, UniProt Q92793). The experiment is described as follows: Binding affinity to human CREBBP at 100 uM by thermal shift assay.
Target sequence in this assay (Q92793 2-2442 limits assumed): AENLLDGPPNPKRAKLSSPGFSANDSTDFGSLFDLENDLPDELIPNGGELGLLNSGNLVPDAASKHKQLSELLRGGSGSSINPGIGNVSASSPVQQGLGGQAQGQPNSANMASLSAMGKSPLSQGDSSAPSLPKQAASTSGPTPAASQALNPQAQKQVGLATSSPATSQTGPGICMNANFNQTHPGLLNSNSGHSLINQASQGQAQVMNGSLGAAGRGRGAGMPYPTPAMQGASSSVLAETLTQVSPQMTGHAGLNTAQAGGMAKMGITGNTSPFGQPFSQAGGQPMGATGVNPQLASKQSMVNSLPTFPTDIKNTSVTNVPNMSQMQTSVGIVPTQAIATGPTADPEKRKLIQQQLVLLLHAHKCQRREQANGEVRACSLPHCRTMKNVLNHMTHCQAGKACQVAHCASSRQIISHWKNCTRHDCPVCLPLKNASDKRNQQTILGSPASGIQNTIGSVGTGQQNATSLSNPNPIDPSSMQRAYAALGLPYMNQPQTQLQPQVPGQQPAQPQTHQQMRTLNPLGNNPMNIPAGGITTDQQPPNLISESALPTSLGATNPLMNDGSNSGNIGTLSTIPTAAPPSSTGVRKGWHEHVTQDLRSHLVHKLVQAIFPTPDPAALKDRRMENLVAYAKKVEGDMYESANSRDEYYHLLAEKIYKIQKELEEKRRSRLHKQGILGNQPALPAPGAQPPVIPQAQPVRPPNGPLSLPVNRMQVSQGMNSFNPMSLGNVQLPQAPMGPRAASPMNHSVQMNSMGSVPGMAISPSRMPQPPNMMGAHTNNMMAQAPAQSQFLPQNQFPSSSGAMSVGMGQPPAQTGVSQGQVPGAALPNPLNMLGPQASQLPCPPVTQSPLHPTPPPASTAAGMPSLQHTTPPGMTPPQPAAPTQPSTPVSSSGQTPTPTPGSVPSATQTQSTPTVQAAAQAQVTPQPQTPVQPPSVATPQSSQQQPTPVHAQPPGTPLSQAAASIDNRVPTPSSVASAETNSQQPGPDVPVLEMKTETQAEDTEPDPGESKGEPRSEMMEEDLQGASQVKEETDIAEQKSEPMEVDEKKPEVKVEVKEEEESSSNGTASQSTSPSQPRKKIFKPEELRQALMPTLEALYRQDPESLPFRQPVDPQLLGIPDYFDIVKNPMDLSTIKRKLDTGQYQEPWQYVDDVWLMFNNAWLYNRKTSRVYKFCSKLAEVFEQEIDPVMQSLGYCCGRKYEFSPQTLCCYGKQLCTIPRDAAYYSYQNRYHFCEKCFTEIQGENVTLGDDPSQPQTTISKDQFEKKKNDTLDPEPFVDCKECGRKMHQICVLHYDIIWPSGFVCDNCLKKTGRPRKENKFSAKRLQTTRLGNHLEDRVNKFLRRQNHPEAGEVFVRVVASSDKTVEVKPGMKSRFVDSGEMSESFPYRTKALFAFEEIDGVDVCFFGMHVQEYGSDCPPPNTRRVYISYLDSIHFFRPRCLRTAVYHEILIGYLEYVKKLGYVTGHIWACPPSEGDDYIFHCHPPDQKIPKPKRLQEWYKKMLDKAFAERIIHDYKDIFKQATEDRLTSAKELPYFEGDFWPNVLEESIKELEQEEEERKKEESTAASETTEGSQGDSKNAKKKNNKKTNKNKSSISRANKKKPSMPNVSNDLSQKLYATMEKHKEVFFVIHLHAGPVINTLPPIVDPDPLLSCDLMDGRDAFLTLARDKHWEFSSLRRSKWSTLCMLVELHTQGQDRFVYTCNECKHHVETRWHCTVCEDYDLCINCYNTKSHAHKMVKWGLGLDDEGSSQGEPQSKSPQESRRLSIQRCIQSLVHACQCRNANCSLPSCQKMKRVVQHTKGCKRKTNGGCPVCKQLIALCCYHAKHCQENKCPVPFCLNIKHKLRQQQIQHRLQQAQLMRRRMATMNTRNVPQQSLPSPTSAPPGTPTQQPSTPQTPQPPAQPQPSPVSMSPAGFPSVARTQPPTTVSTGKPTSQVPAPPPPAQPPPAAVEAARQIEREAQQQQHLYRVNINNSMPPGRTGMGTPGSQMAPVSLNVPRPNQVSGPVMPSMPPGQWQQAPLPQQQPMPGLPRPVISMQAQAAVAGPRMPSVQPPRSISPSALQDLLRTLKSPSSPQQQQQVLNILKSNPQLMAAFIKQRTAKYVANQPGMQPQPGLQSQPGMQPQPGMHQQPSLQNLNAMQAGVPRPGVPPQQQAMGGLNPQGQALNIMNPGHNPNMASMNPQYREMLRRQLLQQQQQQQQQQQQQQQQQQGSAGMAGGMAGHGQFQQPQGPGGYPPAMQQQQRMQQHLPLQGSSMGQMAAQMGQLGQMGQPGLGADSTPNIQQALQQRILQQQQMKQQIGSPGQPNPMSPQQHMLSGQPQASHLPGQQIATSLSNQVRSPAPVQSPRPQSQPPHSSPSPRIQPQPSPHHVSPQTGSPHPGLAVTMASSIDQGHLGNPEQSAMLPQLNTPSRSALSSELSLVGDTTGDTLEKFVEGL
The target in experiment [2] is T1, CREB-binding protein. The experiment is described as follows: Binding affinity to N-terminal GST-tagged recombinant human CREBBP expressed in Escherichia coli after 2 hrs using BET bromodomain ligand by TR-FRET assay.
Target sequence in this assay (Q92793 whole entry): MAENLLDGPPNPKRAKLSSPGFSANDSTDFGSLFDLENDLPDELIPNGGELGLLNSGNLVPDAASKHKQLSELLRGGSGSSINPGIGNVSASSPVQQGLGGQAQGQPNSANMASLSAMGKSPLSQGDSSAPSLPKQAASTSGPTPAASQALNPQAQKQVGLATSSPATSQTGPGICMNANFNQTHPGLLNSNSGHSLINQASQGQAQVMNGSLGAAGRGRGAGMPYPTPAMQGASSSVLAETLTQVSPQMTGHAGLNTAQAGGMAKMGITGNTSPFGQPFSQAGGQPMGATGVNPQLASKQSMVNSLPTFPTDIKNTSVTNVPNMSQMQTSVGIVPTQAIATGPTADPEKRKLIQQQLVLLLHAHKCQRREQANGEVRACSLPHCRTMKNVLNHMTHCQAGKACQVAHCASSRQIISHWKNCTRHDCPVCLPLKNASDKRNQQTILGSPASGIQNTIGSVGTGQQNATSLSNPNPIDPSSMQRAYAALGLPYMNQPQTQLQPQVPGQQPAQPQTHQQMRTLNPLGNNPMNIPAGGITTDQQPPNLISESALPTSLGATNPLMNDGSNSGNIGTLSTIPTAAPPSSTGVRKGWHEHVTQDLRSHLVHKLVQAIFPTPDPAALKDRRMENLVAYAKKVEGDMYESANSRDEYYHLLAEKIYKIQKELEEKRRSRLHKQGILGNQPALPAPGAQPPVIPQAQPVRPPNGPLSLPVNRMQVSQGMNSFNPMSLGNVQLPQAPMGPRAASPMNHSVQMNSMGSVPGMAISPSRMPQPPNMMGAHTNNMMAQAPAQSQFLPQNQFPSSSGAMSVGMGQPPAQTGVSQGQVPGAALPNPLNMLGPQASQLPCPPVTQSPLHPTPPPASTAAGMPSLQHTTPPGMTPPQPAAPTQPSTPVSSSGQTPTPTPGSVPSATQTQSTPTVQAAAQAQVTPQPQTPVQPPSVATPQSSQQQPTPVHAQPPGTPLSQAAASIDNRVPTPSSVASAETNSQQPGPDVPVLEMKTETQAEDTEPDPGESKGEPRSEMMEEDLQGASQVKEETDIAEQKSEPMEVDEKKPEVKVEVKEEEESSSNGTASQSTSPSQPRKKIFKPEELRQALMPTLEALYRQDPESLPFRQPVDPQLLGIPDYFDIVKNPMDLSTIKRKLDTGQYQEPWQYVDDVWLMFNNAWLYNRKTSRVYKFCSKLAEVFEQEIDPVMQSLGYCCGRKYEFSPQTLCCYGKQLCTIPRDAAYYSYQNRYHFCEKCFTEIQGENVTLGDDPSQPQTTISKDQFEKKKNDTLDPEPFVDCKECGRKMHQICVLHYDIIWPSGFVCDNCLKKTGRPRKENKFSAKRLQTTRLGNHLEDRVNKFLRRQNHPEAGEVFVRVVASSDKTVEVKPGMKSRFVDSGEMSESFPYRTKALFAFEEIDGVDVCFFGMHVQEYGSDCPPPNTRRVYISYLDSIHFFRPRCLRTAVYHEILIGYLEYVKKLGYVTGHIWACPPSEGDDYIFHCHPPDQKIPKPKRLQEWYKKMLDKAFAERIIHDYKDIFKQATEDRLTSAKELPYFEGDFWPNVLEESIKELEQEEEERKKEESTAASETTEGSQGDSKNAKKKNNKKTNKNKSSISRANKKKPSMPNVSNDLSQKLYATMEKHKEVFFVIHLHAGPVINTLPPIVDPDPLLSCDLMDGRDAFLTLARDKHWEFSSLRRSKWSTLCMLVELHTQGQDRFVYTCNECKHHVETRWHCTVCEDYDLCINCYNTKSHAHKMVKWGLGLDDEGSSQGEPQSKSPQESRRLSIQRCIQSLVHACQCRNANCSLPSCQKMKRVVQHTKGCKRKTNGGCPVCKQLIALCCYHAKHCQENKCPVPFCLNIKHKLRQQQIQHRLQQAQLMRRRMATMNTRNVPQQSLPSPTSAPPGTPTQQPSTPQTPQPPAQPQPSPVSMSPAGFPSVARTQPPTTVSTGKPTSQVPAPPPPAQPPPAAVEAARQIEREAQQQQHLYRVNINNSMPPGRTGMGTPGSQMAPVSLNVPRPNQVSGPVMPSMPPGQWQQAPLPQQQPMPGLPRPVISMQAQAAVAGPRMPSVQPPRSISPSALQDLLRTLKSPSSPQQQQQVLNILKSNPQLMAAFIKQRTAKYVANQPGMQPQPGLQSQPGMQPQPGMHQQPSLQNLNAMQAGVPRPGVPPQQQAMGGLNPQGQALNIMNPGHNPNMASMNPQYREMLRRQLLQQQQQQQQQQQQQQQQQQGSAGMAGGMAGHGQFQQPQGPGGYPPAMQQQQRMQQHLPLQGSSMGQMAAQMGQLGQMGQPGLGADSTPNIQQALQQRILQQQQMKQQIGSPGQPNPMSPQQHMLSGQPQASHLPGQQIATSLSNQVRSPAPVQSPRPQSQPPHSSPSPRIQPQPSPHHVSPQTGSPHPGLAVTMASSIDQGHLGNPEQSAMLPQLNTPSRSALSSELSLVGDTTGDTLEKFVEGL
Experiment [3] addresses T1, CREB-binding protein. Put plainly: Competitive binding affinity to partial length human CREBBP expressed in Escherichia coli BL21 after 1 hr by BROMOscan assay.
Target sequence in this assay (Q92793 whole entry): as above
Experiment [4] concerns the target T1, CREB-binding protein. The experiment is described as follows: Competitive binding affinity to partial length human CREBBP expressed in Escherichia coli BL21 at 50 uM after 1 hr by BROMOscan assay relative to control.
Target sequence in this assay (Q92793 2-2442 limits assumed): as the sequence (Q92793 2-2442 limits assumed) above
The species entered for a further experiment is Homo sapiens. The experiment is described as follows: Selectivity ratio of Kd for BRD4 bromodomain 1 (unknown origin) to Kd for partial length human CREBBP expressed in Escherichia coli BL21.
Experiment [5] deals with T1, CREB-binding protein. Put plainly: Binding affinity to CREBBP (unknown origin) by fluorescence polarization assay. (In general: Fluorescence polarisation rises when a labelled molecule tumbles more slowly, as on binding a larger partner.)
Target sequence in this assay (Q92793 whole entry): as the sequence (Q92793 whole entry) above

Broadly, the ΔTm is the shift of the melting midpoint relative to a reference. The pIC50 is the negative decadic logarithm of the IC50, by convention in mol/L. Broadly, the pKd is the Kd on a negative log10 scale, so that one unit is a factor of ten. A lower pKd goes with a high Kd. `CC(=O)c1c(C)[nH]c(C(=O)Nc2cccc(C(=O)O)c2)c1C`: the ΔTm at CREB-binding protein [1] was 2.3 °C. For the same molecule, the pIC50 on CREB-binding protein [2] was 5.82. At CREB-binding protein [3], the pKd is 5.38.
In turn, `CCn1cnnc1CNC(=O)c1[nH]c(C)c(C(C)=O)c1C` registered an Activity at CREB-binding protein [4] of 5%. In addition, the shift in melting temperature (ΔTm) at CREB-binding protein [1] came out at 1.3 °C.
For `CCCc1c(C(=O)NCc2c(C)cc(C)[nH]c2=O)[nH]c(C)c1C(C)=O` the same measures were 3% and 0.3 °C.
For the molecule `CCOc1ccc(C(C)=O)cc1NC(=O)c1cccc(C(=O)O)c1`, in the experiment listed under Homo sapiens, the Ratio is above 65.
With `CC(=O)NCCCC[C@@H]1NC(=O)[C@H](CCCCN)NC(=O)[C@H](Cc2c[nH]c3ccccc23)NC(=O)[C@@H](NC(C)=O)CSSC[C@@H](C(=O)N[C@@H](Cc2ccccc2)C(=O)N[C@@H](CCCCN)C(N)=O)NC(=O)[C@H](CC(C)C)NC1=O` (HELM PEPTIDE1{[ac].C.W.K.K.L.C.F.K.[am]}|PEPTIDE2{[ac]}$PEPTIDE1,PEPTIDE2,5:R3-1:R2|PEPTIDE1,PEPTIDE1,2:R3-7:R3$$$V2.0), on CREB-binding protein [5], the negative logarithm of the IC50 (pIC50) is 5.30.
At CREB-binding protein [4], `CC(=O)c1c(C)[nH]c(C(=O)Nc2cc(-c3nnco3)ccc2C)c1C` came in with an Activity of 9%. Also, the ΔTm at CREB-binding protein [1] came out at 0.3 °C. On CREB-binding protein [2], the pIC50 was below 4.00. On CREB-binding protein [3], this molecule had a pKd of 4.89.
Regarding `CC(=O)c1c(C)[nH]c(C(=O)Nc2cc(C(=O)O)ccc2C)c1C`, the ΔTm at CREB-binding protein [1] worked out at 1.4 °C. Also, the pIC50 on CREB-binding protein [2] was below 5.00.
On to `COC(=O)c1ccc(C)c(NC(=O)c2[nH]c(C)c(C(C)=O)c2C)c1`, for which the Activity on CREB-binding protein [4] amounted to 20%.
